Among the data in US7402585B2, “Substituted quinazoline derivatives as inhibitors of aurora kinases” (AstraZeneca AB, priority 2001, dated 2008) are IC50 values, retold here.

pIC50: −log10 of the molar value.

The target of one assay is T1, Aurora-A kinase (Homo sapiens, UniProt O14965).
T1 construct: 6His (with spacer region and rTEV protease cleavage site from pFastBac HTc) (N); made in house; host or cells: Spodoptera frugiperda Sf21 insect cells (baculovirus, pFastBac HTc)
T1 sequence (O14965 1-403): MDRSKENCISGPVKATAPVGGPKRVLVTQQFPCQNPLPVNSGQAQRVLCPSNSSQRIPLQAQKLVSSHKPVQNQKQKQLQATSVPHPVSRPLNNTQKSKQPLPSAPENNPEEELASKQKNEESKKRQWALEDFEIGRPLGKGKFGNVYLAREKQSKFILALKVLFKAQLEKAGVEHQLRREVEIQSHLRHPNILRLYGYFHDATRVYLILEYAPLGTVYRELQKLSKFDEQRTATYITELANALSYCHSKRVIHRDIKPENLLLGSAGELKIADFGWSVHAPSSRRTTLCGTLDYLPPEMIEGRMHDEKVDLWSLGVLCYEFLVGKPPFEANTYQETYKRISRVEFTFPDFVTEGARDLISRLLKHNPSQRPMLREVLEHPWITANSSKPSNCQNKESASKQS
Nature of the assay: In vitro Aurora-A kinase inhibition test. Format: biochemical.

Another assay concerns SW620 cells. The assay is described as follows: In vitro cell proliferation assay (BrdU incorporation). The class given is cell-based. The following applies: SW-620; SW620 human tumour cell line, 48 hours with compound, 2 hour BrdU labelling; read-out: concentration active (50% inhibition of BrdU incorporation). The text has this:
(c) In Vitro Cell Proliferation Assay
This and other assays can be used to determine the ability of a test compound to inhibit the growth of adherent mammalian cell lines, for example the human tumour cell line SW620 (ATCC CCL-227). This assay determines the ability of at test compound to inhibit the incorporation of the thymidine analogue, 5′-bromo-2′-deoxy-uridine (BrdU) into cellular DNA. SW620 or other adherent cells were typically seeded at 1×10^5 cells per well in L-15 media (GIBCO) plus 5% foetal calf serum, 1% L-glutamine (100 μl/well) in 96 well tissue culture treated 96 well plates (Costar) and allowed to adhere overnight. […] The optical density of the wells was then determined at 690 nm wavelength using a Titertek Multiscan plate reader. […]
For orientation: Dividing cells build labelled thymidine or BrdU into new DNA.

For `COc1cc2c(Nc3cc(CC(=O)Nc4cccc(F)c4)[nH]n3)ncnc2cc1OCCCN1CCC[C@H]1CO` [Compound 8, N-(3-fluorophenyl)-2-{3-[(7-{3-[(2S)-2-(hydroxymethyl)pyrrolidin-1-yl]propoxy}-6-methoxyquinazolin-4-yl)amino]-1H-pyrazol-5-yl}acetamide], the figures for the pIC50 against Aurora-A kinase and in the assay on SW620 cells were 8.00 and 7.07, respectively.
The matching figures for `COc1cc2c(Nc3cc(CC(=O)Nc4cccc(F)c4)[nH]n3)ncnc2cc1OCCCN(C)CCO` [Compound 13, N-(3-fluorophenyl)-2-{3-[(7-{3-[(2-hydroxyethyl)(methyl)amino]propoxy}-6-methoxyquinazolin-4-yl)amino]-1H-pyrazol-5-yl}acetamide]: 9.00 and 7.10.
